A short description of this data set: water solubility. The format is physicochemical. The following applies: ph 7 buffer; for solubility: pH 7, aqueous buffer.

In general, solubility refers to the concentration that dissolves in the medium under given conditions. Higher therefore signals a readily soluble substance.

The structures appear in SMILES notation. Converted amounts (≈) assume the structure as drawn.

In turn, `CC(=O)OC[C@H]1O[C@@H](n2cnc3c(N)ncnc32)[C@@H](O)[C@@H]1O` [Example 1, 9-(5-O-acetyl-β-D-arabinofuranosyl)adenine] registered a solubility of 9900 µg/mL (≈ 32 mM).
For the compound `CCC(=O)OC[C@H]1O[C@@H](n2cnc3c(N)ncnc32)[C@@H](O)[C@@H]1O` [Example 2, 9-(5-O-propionyl-β-D-arabinofuranosyl)adenine], the solubility was found to be 9200 µg/mL (≈ 28.5 mM).
`CCCC(=O)OC[C@H]1O[C@@H](n2cnc3c(N)ncnc32)[C@@H](O)[C@@H]1O` [Example 3, 9-(5-O-butyryl-β-D-arabinofuranosyl)adenine]: the water solubility (pH 7) came to 16100 µg/mL (≈ 47.7 mM).
`CCCCC(=O)OC[C@H]1O[C@@H](n2cnc3c(N)ncnc32)[C@@H](O)[C@@H]1O` [Example 4] showed a solubility of 8400 µg/mL (≈ 23.9 mM).
Regarding `CC(C)CC(=O)OC[C@H]1O[C@@H](n2cnc3c(N)ncnc32)[C@@H](O)[C@@H]1O` [Example 5, 9-[5-O-(3-methylbutyryl)-β-D-arabinofuranosyl]-adenine], the concentration in solution (solubility) was 16400 µg/mL (≈ 46.7 mM).
Regarding `CC(C)(C)C(=O)OC[C@H]1O[C@@H](n2cnc3c(N)ncnc32)[C@@H](O)[C@@H]1O` [Example 6, 9-[5-O-(2,2-dimethylpropionyl)-β-D-arabinofuranosyl]-adenine], the solubility worked out at 7000 µg/mL (≈ 19.9 mM).
The compound `CCCCCC(=O)OC[C@H]1O[C@@H](n2cnc3c(N)ncnc32)[C@@H](O)[C@@H]1O` [Example 7, 9-(5-O-hexanoyl-β-D-arabinofuranosyl)adenine] came in with a solubility of 2500 µg/mL (≈ 6.84 mM).

(Values after patent publication US4069382A, “9-(5-O-Acyl-β-D-arabinofuranosyl)adenine compounds” (Parke, Davis & Company, priority 1976, dated 1978).)
